# Measurements from patent US12534452B2, “N-(1H-imidazol-2-yl)benzamide compound and pharmaceutical composition comprising the same as active ingredient” (KAINOS MEDICINE, INC., priority 2019, dated 2026).
# Target: IRAK4 (Homo sapiens (Human), UniProt Q9NWZ3)
# Experiment: In vitro IRAK4 phosphorylation activity assay
# Format: biochemical
# Conditions: [γ-33P]-ATP, myelin basic protein substrate, 40 minutes at room temperature; categories
# Outline: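 Radiometric filter-binding assay, no compound–kinase preincubation; 8 mM MOPS pH 7.0, 0.2 mM EDTA, 10 mM Mg acetate, 0.33 mg/mL myelin basic protein substrate, [γ-33P]-ATP. Reaction 40 min at room temperature, stopped with phosphoric acid, scintillation counting; IC50 reported in categories.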
# Chain of IRAK4 (Q9NWZ3 whole entry): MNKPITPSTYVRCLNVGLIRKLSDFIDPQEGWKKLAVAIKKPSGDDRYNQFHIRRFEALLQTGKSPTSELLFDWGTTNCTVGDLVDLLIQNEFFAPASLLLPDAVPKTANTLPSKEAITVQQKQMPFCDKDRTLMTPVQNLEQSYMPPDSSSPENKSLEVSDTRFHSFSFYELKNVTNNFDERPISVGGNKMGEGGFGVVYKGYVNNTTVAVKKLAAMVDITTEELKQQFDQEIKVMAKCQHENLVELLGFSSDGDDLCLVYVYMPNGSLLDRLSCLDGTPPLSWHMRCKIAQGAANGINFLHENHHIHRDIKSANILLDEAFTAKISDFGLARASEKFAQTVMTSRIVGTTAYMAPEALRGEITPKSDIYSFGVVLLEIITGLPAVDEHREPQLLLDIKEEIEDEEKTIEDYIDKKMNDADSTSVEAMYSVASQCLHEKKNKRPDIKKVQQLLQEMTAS
row,IC50,Structure (SMILES)
1,< 0.05 µM,"Cn1cc(-c2cccc(C(=O)Nc3nc(CCCCCCN4CCCCCC4)cn3-c3ccccc3)c2)cn1 [Example 223, N-(4-(6-(azepan-1-yl)hexyl)-1-phenyl-1H-imidazol-2-yl)-3-(1-methyl-1H-pyrazol-4-yl)benzamide]"
2,< 0.05 µM,"O=C(Nc1nc(CCCCCCN2CCCCC2)cn1-c1ccccc1)c1cccc(-c2cccc3[nH]ncc23)c1 [Example 255, 3-(1H-indazol-4-yl)-N-(1-phenyl-4-(6-(piperidin-1-yl)hexyl)-1H-imidazol-2-yl)benzamide]"
3,< 0.05 µM,"CN(C)C1CCN(C(=O)CCCc2cn(-c3ccccc3)c(NC(=O)c3cccc(-c4cnn(C)c4)c3)n2)CC1 [Example 146, N-(4-(4-(4-(dimethylamino)piperidin-1-yl)-4-oxobutyl)-1-phenyl-1H-imidazol-2-yl)-3-(1-methyl-1H-pyrazol-4-yl)benzamide]"
4,< 0.05 µM,"O=C(Nc1nc(CCC(=O)N2CCCC[C@H]2C(F)(F)F)cn1-c1ccccc1)c1cccc(-c2cn[nH]c2)c1 [Example 38, (S)—N-(4-(3-oxo-3-(2-(trifluoromethyl)piperidin-1-yl)propyl)-1-phenyl-1H-imidazol-2-yl)-3-(1H-pyrazol-4-yl)benzamide]"
5,< 0.05 µM,"O=C(CCc1cn(-c2cccc(Cl)c2)c(NC(=O)c2cccc(-c3cn[nH]c3)c2)n1)Nc1ccccc1 [Example 293, N-(1-(3-chlorophenyl)-4-(3-oxo-3-(phenylamino)propyl)-1H-imidazol-2-yl)-3-(1H-pyrazol-4-yl)benzamide]"
6,< 0.05 µM,"Nc1ccc(-c2cccc(C(=O)Nc3nc(CCCCN4CCCC4=O)cn3-c3ccccc3)c2)cn1 [Example 277, 3-(6-aminopyridin-3-yl)-N-(4-(4-(2-oxopyrrolidin-1-yl)butyl)-1-phenyl-1H-imidazol-2-yl)benzamide]"
7,< 0.05 µM,"Cn1cc(-c2cccc(C(=O)Nc3nc(CCCC(=O)N4CCC(N)CC4)cn3-c3ccccc3)c2)cn1 [Example 209, N-(4-(4-(4-aminopiperidin-1-yl)-4-oxobutyl)-1-phenyl-1H-imidazol-2-yl)-3-(1-methyl-1H-pyrazol-4-yl)benzamide]"
8,< 0.05 µM,"O=C(Nc1nc(CCCCCCN2CCCCC2)cn1-c1ccccc1)c1cccc(-c2ccc3[nH]ncc3c2)c1 [Example 252, 3-(1H-indazol-5-yl)-N-(1-phenyl-4-(6-(piperidin-1-yl)hexyl)-1H-imidazol-2-yl)benzamide]"
9,< 0.05 µM,"O=C(Nc1nc(CCCCCCN2CCOCC2)cn1-c1ccccc1)c1cccc(-c2ccc3[nH]ncc3c2)c1 [Example 254, 3-(1H-indazol-5-yl)-N-(4-(6-morpholinohexyl)-1-phenyl-1H-imidazol-2-yl)benzamide]"
10,< 0.05 µM,"O=C(Nc1nc(CCCCCCO)cn1-c1ccccc1)c1cccc(-c2cn[nH]c2)c1 [Example 121, N-(4-(6-hydroxyhexyl)-1-phenyl-1H-imidazol-2-yl)-3-(1H-pyrazol-4-yl)benzamide]"
11,0.05 to 0.1 µM,"O=C(Nc1nc(CCC(=O)N2CC[C@@H](C(=O)O)C2)cn1-c1ccccc1)c1cccc(-c2cn[nH]c2)c1 [Example 25, (R)-1-(3-(2-(3-(1H-pyrazol-4-yl)benzamido)-1-phenyl-1H-imidazol-4-yl)propanoyl)pyrrolidine-3-carboxylic acid]"
12,< 0.05 µM,"Nc1ccc(-c2cccc(C(=O)Nc3nc(CCCC(=O)N4CCCCC4)cn3-c3ccccc3)c2)cn1 [Example 273, 3-(6-aminopyridin-3-yl)-N-(4-(4-oxo-4-(piperidin-1-yl)butyl)-1-phenyl-1H-imidazol-2-yl)benzamide]"
13,> 0.1 µM,"O=C(Nc1nc(CCCCCC(=O)N2CCCCCC2)cn1-c1ccccc1)c1cccc(-c2ccc3scnc3c2)c1 [Example 289, N-(4-(6-(azepan-1-yl)-6-oxohexyl)-1-phenyl-1H-imidazol-2-yl)-3-(benzo[d]thiazol-5-yl)benzamide]"
14,< 0.05 µM,"COC[C@@H]1CCCN1C(=O)CCCCc1cn(-c2ccccc2)c(NC(=O)c2cccc(-c3cn[nH]c3)c2)n1 [Example 86, (S)—N-(4-(5-(2-(methoxymethyl)pyrrolidin-1-yl)-5-oxopentyl)-1-phenyl-1H-imidazol-2-yl)-3-(1H-pyrazol-4-yl)benzamide]"
15,> 0.1 µM,"Cn1cc(-c2cccc(C(=O)Nc3nc(CCCC(=O)NC4CCNCC4)cn3-c3ccccc3)c2)cn1 [Example 214, 3-(1-methyl-1H-pyrazol-4-yl)-N-(4-(4-oxo-4-(piperidin-4-ylamino)butyl)-1-phenyl-1H-imidazol-2-yl)benzamide]"
16,< 0.05 µM,"O=C(Nc1nc(CCCCCCN2CCCCC2=O)cn1-c1ccccc1)c1cccc(-c2ccc3[nH]ncc3c2)c1 [Example 260, 3-(1H-indazol-5-yl)-N-(4-(6-(2-oxopiperidin-1-yl)hexyl)-1-phenyl-1H-imidazol-2-yl)benzamide]"
17,0.05 to 0.1 µM,"CNC(=O)Cc1cn(-c2ccccc2)c(NC(=O)c2cccc(-c3ccc4[nH]ncc4c3)c2)n1 [Example 243, 3-(1H-indazol-5-yl)-N-(4-(2-(methylamino)-2-oxoethyl)-1-phenyl-1H-imidazol-2-yl)benzamide]"

row,IC50,Structure (SMILES)
1,< 0.05 µM,"O=C(Nc1nc(CCCCNC(=O)C2CC2)cn1-c1ccccc1)c1cccc(-c2ccc3[nH]ncc3c2)c1 [Example 261, N-(4-(4-(cyclopropanecarboxamido)butyl)-1-phenyl-1H-imidazol-2-yl)-3-(1H-indazol-5-yl)benzamide]"
2,< 0.05 µM,"C[C@@H]1CCC[C@H](C)N1C(=O)CCCCCc1cn(-c2ccccc2)c(NC(=O)c2cccc(-c3cn[nH]c3)c2)n1 [Example 97, N-(4-(6-((2R,6S)-2,6-dimethylpiperidin-1-yl)-6-oxohexyl)-1-phenyl-1H-imidazol-2-yl)-3-(1H-pyrazol-4-yl)benzamide]"
3,0.05 to 0.1 µM,"O=C(Nc1nc(CCCCCCNc2ccccc2)cn1-c1ccccc1)c1cccc(-c2cn[nH]c2)c1 [Example 122, N-(1-phenyl-4-(6-(phenylamino)hexyl)-1H-imidazol-2-yl)-3-(1H-pyrazol-4-yl)benzamide]"
4,< 0.05 µM,"Nc1ccc(-c2cccc(C(=O)Nc3nc(CCCCCC(=O)N4CCCCC4)cn3-c3ccccc3)c2)cn1 [Example 271, 3-(6-aminopyridin-3-yl)-N-(4-(6-oxo-6-(piperidin-1-yl)hexyl)-1-phenyl-1H-imidazol-2-yl)benzamide]"
5,> 0.1 µM,"CNC(=O)Cc1cn(-c2ccccc2)c(NC(=O)c2ccccc2)n1 [Example 50, N-(4-(2-(methylamino)-2-oxoethyl)-1-phenyl-1H-imidazol-2-yl)benzamide]"
6,< 0.05 µM,"N[C@@H]1CCCN(C(=O)CCc2cn(-c3ccccc3)c(NC(=O)c3cccc(-c4cn[nH]c4)c3)n2)C1 [Example 40, (R)—N-(4-(3-(3-aminopiperidin-1-yl)-3-oxopropyl)-1-phenyl-1H-imidazol-2-yl)-3-(1H-pyrazol-4-yl)benzamide]"
7,< 0.05 µM,"COC[C@@H]1CCCN1C(=O)CCCCCc1cn(-c2ccccc2)c(NC(=O)c2cccc(-c3cn[nH]c3)c2)n1 [Example 100, (S)—N-(4-(6-(2-(methoxymethyl)pyrrolidin-1-yl)-6-oxohexyl)-1-phenyl-1H-imidazol-2-yl)-3-(1H-pyrazol-4-yl)benzamide]"
8,< 0.05 µM,"Nc1ccc(-c2cccc(C(=O)Nc3nc(CCCCCCN4CCCCC4)cn3-c3ccccc3)c2)cn1 [Example 275, 3-(6-aminopyridin-3-yl)-N-(1-phenyl-4-(6-(piperidin-1-yl)hexyl)-1H-imidazol-2-yl)benzamide]"
9,> 0.1 µM,"CN1CCN(C(=O)CCCCCc2cn(-c3ccccc3)c(NC(=O)c3cccc(-c4ccc5scnc5c4)c3)n2)CC1 [Example 288, 3-(benzo[d]thiazol-5-yl)-N-(4-(6-(4-methylpiperazin-1-yl)-6-oxohexyl)-1-phenyl-1H-imidazol-2-yl)benzamide]"
10,< 0.05 µM,"COC[C@H]1CCCN1NC(=O)CCCCc1cn(-c2ccccc2)c(NC(=O)c2cccc(-c3cn[nH]c3)c2)n1 [Example 85, (R)—N-(4-(5-((2-(methoxymethyl)pyrrolidin-1-yl)amino)-5-oxopentyl)-1-phenyl-1H-imidazol-2-yl)-3-(1H-pyrazol-4-yl)benzamide]"
11,0.05 to 0.1 µM,"O=C(Nc1nc(CCCCCCN2CCCCC2)cn1-c1ccccc1)c1cccc(-c2ccc3[nH]ccc3c2)c1 [Example 253, 3-(1H-indol-5-yl)-N-(1-phenyl-4-(6-(piperidin-1-yl)hexyl)-1H-imidazol-2-yl)benzamide]"
12,< 0.05 µM,"O=C(CCCc1cn(-c2ccccc2)c(NC(=O)c2cccc(-c3ccc4ncsc4c3)c2)n1)NC1CC1 [Example 279, 3-(benzo[d]thiazol-6-yl)-N-(4-(4-(cyclopropylamino)-4-oxobutyl)-1-phenyl-1H-imidazol-2-yl)benzamide]"
13,< 0.05 µM,"O=C(CCCCCc1cn(-c2ccccc2)c(NC(=O)c2cccc(-c3ccc4ncsc4c3)c2)n1)NC1CC1 [Example 286, 3-(benzo[d]thiazol-6-yl)-N-(4-(6-(cyclopropylamino)-6-oxohexyl)-1-phenyl-1H-imidazol-2-yl)benzamide]"
14,< 0.05 µM,"Cn1cc(-c2cccc(C(=O)Nc3nc(CCCC(=O)NN4CCCC4)cn3-c3ccccc3)c2)cn1 [Example 151, 3-(1-methyl-1H-pyrazol-4-yl)-N-(4-(4-oxo-4-(pyrrolidin-1-ylamino)butyl)-1-phenyl-1H-imidazol-2-yl)benzamide]"
15,< 0.05 µM,"C[C@@H]1CCC[C@H](C)N1C(=O)CCc1cn(-c2ccccc2)c(NC(=O)c2cccc(-c3cn[nH]c3)c2)n1 [Example 32, N-(4-(3-((2R,6S)-2,6-dimethylpiperidin-1-yl)-3-oxopropyl)-1-phenyl-1H-imidazol-2-yl)-3-(1H-pyrazol-4-yl)benzamide]"
16,< 0.05 µM,"Cn1cc(-c2cccc(C(=O)Nc3nc(CCCC(=O)N4CCC[C@H](C(=O)O)C4)cn3-c3ccccc3)c2)cn1 [Example 207, (S)-1-(4-(2-(3-(1-methyl-1H-pyrazol-4-yl)benzamido)-1-phenyl-1H-imidazol-4-yl)butanoyl)piperidine-3-carboxylic acid]"
